Experimental data published in PMC8634379, “From the Design to the In Vivo Evaluation of Benzohomoadamantane-Derived Soluble Epoxide Hydrolase Inhibitors for the Treatment of Acute Pancreatitis” (Journal of Medicinal Chemistry, 2021).
“And” between values parts separate entries of the source, which are not always exact repeats. Equal entries are not always repeated. Where two headings read alike, the source gives them in different places.

Assays:
[1] = biological target: CYP 2D6 (Homo sapiens, UniProt P10635); experiment: Cytochrome P450 inhibition, fluorescence detection; type: in vitro ADME; conditions: at 10 μM
[2] = biological target: CYP 2C19 (Homo sapiens, UniProt P33261); experiment: Cytochrome P450 inhibition, fluorescence detection; type: in vitro ADME
[3] = biological target: T1, hERG potassium channel (Homo sapiens, UniProt Q12809); experiment: hERG inhibition assay (Fluxor potassium ion channel kit, transfected CHO cells); type: cell-based; conditions: at 10 μM
T1 construct: expressed in transfected cells; host or cells: CHO
Method: The assay was carried out at a CHO cell line transfected with the hERG potassium channel. 72 h before the assay, 2500 cells were seeded on a 384-well black plate (Greiner 781091). The cell line was maintained at 37 °C in a 5% CO2 atmosphere for 24 h and at 30 °C in a 5% CO2 atmosphere for 48 h plus. hERG activity was measured by using the FluxorTM Potassium Ion Chanel Assay Kit (Thermo Fisher F10016). Medium was replaced for 20 μL of loading buffer and the cells were incubated for 60 min at RT, protected from direct light. After incubation, the loading buffer was replaced for the assay buffer and the compounds were incubated for 30 min at RT. 5 μL of a stimulus buffer was added to each well and the fluorescence was read (λex = 490 nm, λem = 525 nm) using an imaging plate reader system (FDSS7000EX, Hamamatsu) every second after the establishment of a baseline line.

[4] = Pharmacokinetic study after IP administration; type: in vivo, male C57BL/6 mice; conditions: for AUC(0-t) / Cl / Cmax / Tmax / Vd / half-life / AUC(0-inf): ip; for AUC(0-inf): AUCINF
Method: During the experimental procedure, animals were identified with a permanent marker (tail code numbers). […] They underwent a period of at least 5 days of observation and acclimatization between the date of arrival and the start of the procedure. […] Diet was analyzed by the manufacturer to detect possible contaminants. Tap water was supplied by CASSA (Servei d’Aigües de Sabadell) and was provided to the animals by bottles ad libitum. […] Ministry of Agriculture, Livestock, and Fishing of the autonomous government of Catalonia, Spain. […] Formulations were prepared on the day of the study. […] Animals were weighed before each administration to adjust the required volume. […] Blood samples (0.5–0.8 mL) were collected from anesthetized animals with isoflurane by cava vein puncture in tubes containing K2-EDTA 5%. Blood samples were centrifuged at 10,000 rpm for 5 min to obtain plasma that was stored at −20 °C until analysis. Analytical measurements were performed by LC–MS/MS. Pharmacokinetics parameters were calculated with Phoenix 64 (WinNonlin).

[5] = biological target: CYP 2C9 (Homo sapiens, UniProt P11712); experiment: Cytochrome P450 inhibition, fluorescence detection; type: in vitro ADME; conditions: at 10 μM
[6] = biological target: T2, rat sEH (Rattus norvegicus, UniProt P80299); experiment: sEH inhibition, fluorescent-based assay (CMNPC substrate); type: biochemical; conditions: purified recombinant enzyme, average of three replicates
T2 sequence (P80299 1-554): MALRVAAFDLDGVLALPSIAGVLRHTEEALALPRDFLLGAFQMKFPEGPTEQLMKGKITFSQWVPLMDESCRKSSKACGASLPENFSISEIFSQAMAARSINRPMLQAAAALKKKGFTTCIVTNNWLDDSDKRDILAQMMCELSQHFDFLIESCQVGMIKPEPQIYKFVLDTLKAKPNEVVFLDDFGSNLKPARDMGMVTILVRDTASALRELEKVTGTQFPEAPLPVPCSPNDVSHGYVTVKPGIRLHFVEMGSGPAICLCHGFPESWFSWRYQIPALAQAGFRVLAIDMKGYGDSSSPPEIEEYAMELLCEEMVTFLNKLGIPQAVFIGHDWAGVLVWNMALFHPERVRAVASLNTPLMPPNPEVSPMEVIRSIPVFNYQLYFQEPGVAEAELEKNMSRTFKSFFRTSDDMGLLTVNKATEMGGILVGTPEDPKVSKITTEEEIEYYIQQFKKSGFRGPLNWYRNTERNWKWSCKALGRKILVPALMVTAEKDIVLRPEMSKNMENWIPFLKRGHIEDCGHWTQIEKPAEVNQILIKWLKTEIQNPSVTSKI
Method: (§1) The IC50 values reported herein were determined using a fluorescent-based assay (CMNPC as substrate).[16] The fluorescent assay was used with purified recombinant human, mouse, or rat sEH proteins. The enzymes were incubated at 30 °C with the inhibitors ([I]final = 0.4–100,000 nM) for 5 min in 100 mM sodium phosphate buffer (200 μL, pH 7.4) containing 0.1 mg/mL of BSA and 1% of DMSO. The substrate (CMNPC) was then added ([S]final = 5 μM). […] Results were obtained by regression analysis from a linear region of the curve.

[7] = biological target: T3, human sEH (hsEH) (Homo sapiens, UniProt P34913); experiment: as above; type: biochemical; conditions: purified recombinant enzyme, average of three replicates
T3 sequence (P34913 1-555): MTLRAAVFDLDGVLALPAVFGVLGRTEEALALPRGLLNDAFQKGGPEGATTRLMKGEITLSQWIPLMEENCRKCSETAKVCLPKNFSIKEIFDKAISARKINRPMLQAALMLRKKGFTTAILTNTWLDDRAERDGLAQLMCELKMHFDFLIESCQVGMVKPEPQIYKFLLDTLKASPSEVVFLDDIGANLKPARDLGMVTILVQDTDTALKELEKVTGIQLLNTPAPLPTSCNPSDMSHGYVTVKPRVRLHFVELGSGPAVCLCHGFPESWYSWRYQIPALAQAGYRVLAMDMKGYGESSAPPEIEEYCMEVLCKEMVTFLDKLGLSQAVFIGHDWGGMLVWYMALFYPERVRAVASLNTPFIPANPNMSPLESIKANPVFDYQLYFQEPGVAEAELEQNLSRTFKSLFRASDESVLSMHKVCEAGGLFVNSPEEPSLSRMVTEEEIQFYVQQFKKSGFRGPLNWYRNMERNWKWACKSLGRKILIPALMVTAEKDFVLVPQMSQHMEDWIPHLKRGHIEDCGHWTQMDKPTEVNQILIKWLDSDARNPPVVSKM
Method: as §1

[8] = IC50 calculated for >50% inhibition at 10 μM
[9] = male, C57BL/6, mouse, in vivo, 3 mg/kg

Sequence of CYP 2C19 (P33261 whole entry): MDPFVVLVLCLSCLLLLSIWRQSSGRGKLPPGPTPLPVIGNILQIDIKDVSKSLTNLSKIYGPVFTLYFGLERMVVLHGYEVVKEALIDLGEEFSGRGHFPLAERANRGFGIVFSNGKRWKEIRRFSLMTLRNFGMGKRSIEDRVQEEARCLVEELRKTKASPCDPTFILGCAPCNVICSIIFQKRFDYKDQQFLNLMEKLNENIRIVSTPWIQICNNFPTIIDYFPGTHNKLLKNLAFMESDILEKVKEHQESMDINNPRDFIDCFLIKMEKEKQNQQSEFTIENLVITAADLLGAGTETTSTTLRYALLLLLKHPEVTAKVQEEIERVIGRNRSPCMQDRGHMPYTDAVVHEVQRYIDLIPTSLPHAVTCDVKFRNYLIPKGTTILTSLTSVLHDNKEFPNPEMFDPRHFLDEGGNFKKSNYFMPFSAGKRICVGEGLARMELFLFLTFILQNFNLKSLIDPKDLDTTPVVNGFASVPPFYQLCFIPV
Sequence of CYP 2C9 (P11712 whole entry): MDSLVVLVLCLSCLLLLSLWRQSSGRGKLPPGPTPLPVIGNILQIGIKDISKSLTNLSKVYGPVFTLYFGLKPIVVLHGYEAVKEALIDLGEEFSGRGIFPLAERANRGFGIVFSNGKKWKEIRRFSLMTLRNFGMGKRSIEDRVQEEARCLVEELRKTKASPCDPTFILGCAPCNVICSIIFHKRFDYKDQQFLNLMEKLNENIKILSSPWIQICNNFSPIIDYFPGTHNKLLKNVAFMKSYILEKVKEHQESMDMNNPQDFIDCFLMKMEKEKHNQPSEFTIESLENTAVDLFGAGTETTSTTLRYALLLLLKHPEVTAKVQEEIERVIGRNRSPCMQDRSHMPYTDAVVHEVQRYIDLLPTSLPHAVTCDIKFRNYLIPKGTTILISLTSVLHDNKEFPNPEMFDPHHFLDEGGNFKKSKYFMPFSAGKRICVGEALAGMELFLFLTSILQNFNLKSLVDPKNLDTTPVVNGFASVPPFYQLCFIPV
Sequence of CYP 2D6 (P10635 whole entry): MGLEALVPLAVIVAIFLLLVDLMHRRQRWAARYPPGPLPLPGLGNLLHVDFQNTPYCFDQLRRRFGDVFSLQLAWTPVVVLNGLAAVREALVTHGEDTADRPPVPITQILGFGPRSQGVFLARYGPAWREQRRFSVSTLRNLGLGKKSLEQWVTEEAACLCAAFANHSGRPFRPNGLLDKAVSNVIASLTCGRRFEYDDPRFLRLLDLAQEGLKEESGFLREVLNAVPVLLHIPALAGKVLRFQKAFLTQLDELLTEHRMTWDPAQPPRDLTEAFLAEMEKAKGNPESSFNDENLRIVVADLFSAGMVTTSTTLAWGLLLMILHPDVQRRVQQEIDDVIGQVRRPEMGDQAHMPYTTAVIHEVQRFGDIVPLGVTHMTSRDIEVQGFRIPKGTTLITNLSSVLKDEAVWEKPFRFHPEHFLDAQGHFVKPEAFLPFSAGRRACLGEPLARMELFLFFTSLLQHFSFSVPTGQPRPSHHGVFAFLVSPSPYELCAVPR
T1 sequence (Q12809 whole entry): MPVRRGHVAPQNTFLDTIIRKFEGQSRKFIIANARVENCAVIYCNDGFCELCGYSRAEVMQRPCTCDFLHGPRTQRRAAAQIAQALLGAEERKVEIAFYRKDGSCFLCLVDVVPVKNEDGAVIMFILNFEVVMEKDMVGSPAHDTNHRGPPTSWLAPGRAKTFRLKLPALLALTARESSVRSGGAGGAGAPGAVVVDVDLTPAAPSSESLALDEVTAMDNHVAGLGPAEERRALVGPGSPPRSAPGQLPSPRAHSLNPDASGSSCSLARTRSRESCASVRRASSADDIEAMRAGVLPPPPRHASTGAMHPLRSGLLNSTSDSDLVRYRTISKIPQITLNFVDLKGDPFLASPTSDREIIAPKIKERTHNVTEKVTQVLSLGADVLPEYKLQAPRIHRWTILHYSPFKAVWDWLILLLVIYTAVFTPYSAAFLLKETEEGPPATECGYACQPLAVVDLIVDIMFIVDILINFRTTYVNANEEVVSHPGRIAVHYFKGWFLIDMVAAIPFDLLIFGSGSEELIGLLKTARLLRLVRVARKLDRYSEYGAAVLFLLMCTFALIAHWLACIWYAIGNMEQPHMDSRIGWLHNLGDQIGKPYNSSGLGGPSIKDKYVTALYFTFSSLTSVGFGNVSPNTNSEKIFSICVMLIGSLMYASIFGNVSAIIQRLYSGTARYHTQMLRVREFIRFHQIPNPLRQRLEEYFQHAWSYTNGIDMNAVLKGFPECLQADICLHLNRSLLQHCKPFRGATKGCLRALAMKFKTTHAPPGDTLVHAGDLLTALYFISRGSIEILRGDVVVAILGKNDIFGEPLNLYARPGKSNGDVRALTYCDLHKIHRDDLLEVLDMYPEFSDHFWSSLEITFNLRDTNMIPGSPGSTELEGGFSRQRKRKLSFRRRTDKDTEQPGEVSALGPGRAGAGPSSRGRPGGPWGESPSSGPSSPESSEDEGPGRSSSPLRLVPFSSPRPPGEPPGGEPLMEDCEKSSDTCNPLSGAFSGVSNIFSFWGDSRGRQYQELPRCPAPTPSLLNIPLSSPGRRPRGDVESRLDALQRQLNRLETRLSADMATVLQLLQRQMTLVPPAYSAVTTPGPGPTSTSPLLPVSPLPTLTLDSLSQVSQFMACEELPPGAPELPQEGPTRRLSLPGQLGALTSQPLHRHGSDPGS

| IC50 [6] [nM] | IC50 [7] [nM] | SMILES | CYP 2D6 inhibition [1] [%] | IC50 [2] [nM] | IC50 [2, 8] [nM] | hERG channel inhibition [3] [%] | AUC(0-t) [4, 9] [ng·h/mL] | Cl [4, 9] [mL/min/kg] | Cmax [4, 9] [ng/mL] | Tmax [4, 9] [h] | Vd [4, 9] [L/kg] | half-life [4, 9] [h] | AUC(0-inf) [4, 9] [ng·h/mL] | CYP 2C9 inhibition [5] [%] | other results |
| --- | --- | --- | --- | --- | --- | --- | --- | --- | --- | --- | --- | --- | --- | --- | --- |
| – | – | O=C(NC12CC3CC(Cl)(CC(C1)c1ccccc13)C2)N[C@H]1CC[C@H](Oc2ccc(C(=O)O)cc2)CC1 [Compound 22, 4-[((1r,4r)-4-(3-(9-Chloro-5,6,8,9,10,11-hexahydro-7H-5,9:7,11-dimethanobenzo[9]annulen-7-yl)ureido)cyclohexyl)oxy]benzoic Acid] | 11 ± 3 | ~2000 | 2200 | 44 | 22500 | 2.17 | 3580 | 2 | 0.96 | 5.2 | 23300 | 31 ± 3 | Total Concentration in mouse plasma, individual mice ([4]; 3 mg/kg ip, 0.25 h (5400 for 20 excluded as outlier)): 151 ng/mL and 291 ng/mL and 622 ng/mL; Total Concentration in mouse plasma, individual mice ([4]; 3 mg/kg ip, 0.5 h): 1520 ng/mL and 1980 ng/mL; Total Concentration in mouse plasma, individual mice ([4]; 3 mg/kg ip, 1 h): 1100 ng/mL and 2640 ng/mL and 600 ng/mL; Total Concentration in mouse plasma, individual mice ([4]; 3 mg/kg ip, 2 h): 2440.0 ng/mL and 2640.0 ng/mL and 5670.0 ng/mL; Total Concentration in mouse plasma, individual mice ([4]; 3 mg/kg ip, 4 h): 1960.0 ng/mL and 1350.0 ng/mL; Total Concentration in mouse plasma, individual mice ([4]; 3 mg/kg ip, 6 h): 1160 ng/mL and 734.0 ng/mL and 1530 ng/mL; Total Concentration in mouse plasma, individual mice ([4]; 3 mg/kg ip, 24 h): 181.0 ng/mL and 40.6 ng/mL and 92.3 ng/mL; concentration at 0.25 h ([4]; male, C57BL/6, mouse, in vivo, 3 mg/kg, 3 mg/kg ip, 0.25 h, read-out: Mean concentration in mouse plasma): 355 ng/mL; concentration at 0.5 h ([4]; male, C57BL/6, mouse, in vivo, 3 mg/kg, 3 mg/kg ip, 0.5 h, read-out: Mean concentration in mouse plasma): 1620 ng/mL; concentration at 0.5 h ([4]; male, C57BL/6, mouse, in vivo, 3 mg/kg, 3 mg/kg ip, 0.5 h, read-out: Total Concentration in mouse plasma, individual mice): 1350 ng/mL; concentration at 1 h ([4]; male, C57BL/6, mouse, in vivo, 3 mg/kg, 3 mg/kg ip, 1 h, read-out: Mean concentration in mouse plasma): 1450 ng/mL; concentration at 2 h ([4]; male, C57BL/6, mouse, in vivo, 3 mg/kg, 3 mg/kg ip, 2 h, read-out: Mean concentration in mouse plasma): 3580 ng/mL; concentration at 4 h ([4]; male, C57BL/6, mouse, in vivo, 3 mg/kg, 3 mg/kg ip, 4 h, read-out: Mean concentration in mouse plasma): 1520 ng/mL; concentration at 4 h ([4]; male, C57BL/6, mouse, in vivo, 3 mg/kg, 3 mg/kg ip, 4 h, read-out: Total Concentration in mouse plasma, individual mice): 1240 ng/mL; concentration at 6 h ([4]; male, C57BL/6, mouse, in vivo, 3 mg/kg, 3 mg/kg ip, 6 h, read-out: Mean concentration in mouse plasma): 1140 ng/mL; concentration at 24 h ([4]; male, C57BL/6, mouse, in vivo, 3 mg/kg, 3 mg/kg ip, 24 h, read-out: Mean concentration in mouse plasma): 105 ng/mL |
| 0.4 | 0.9 | CC12CC3CC(NC(=O)N[C@H]4CC[C@H](Oc5ccc(C(=O)O)cc5)CC4)(CC(C1)c1ccccc13)C2 [Compound 20, 4-[((1r,4r)-4-(3-(9-Methyl-5,6,8,9,10,11-Hexahydro-7H-5,9:7,11-dimethanobenzo[9]annulen-7-yl)ureido)cyclohexyl)oxy]benzoic Acid] | 1 ± 1 | ~2000 | 1900 | 4 | 2260 | 21.5 | 1610 | 0.5 | 2.18 | 1.17 | 2320 | 17 ± 3 | fold more potency inhibiting the sEH than CYP2C19 [2]: 2000 fold; Total Concentration in mouse plasma, individual mice ([4]; male, C57BL/6, mouse, in vivo, 24 h): 0 ng/mL |
| 0.4 | 0.5 | O=C(NC12CC3CC(F)(CC(C1)c1ccccc13)C2)N[C@H]1CC[C@H](Oc2ccc(C(=O)O)cc2)CC1 [Compound 23, 4-[((1r,4r)-4-(3-(9-Fluoro-5,6,8,9,10,11-hexahydro-7H-5,9:7,11-dimethanobenzo[9]annulen-7-yl)ureido)cyclohexyl)oxy]benzoic Acid] | – | – | – | – | – | – | – | – | – | – | – | – | – |
